System: excised porcine nasal tissue
Assay: Ex vivo nasal mucosal absorption, static diffusion (Franz) cell
Conditions: diffusion measured after 7 hours, compared with the other formulations
Procedure: A standard static diffusion (Franz) cell set up was employed to set up an ex vivo model for nasal mucosa absorption, using an excised porcine nasal tissue.
Diffusion through the tissue was measured after 7 hours and permeation is shown as mean (three repeats) cumulative transport (μg/cm^2; with SD) in FIGS. 8 and 9 for naloxone and nalmefene, respectively.

## benzalkonium chloride
  Apparent permeation coefficient (Papp) of nalmefene: No corresponding absorption enhancement
  Apparent permeation coefficient (Papp) of naloxone: No corresponding absorption enhancement
